Laboratory results: ChEMBL document CHEMBL1201862, “PubChem BioAssay data set” (2004)
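Interpolation was linear, between the two tested concentrations surrounding the appropriate level; five concentrations were tested over 48 hours in 96-well plates. GI50: concentration for 50% inhibition of growth.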 Active and inactive are the calls of the source. No stated cut-off is given here; in the data, active = GI50 up to about 1.1 µM and inactive = higher.

How the values were obtained:
Test in all cases: NCI anticancer screen, dose series, 48 h
786-0 = tested on: 786-0
A498 = tested on: A498
A549 = tested on: A549
ACHN = tested on: ACHN
CAKI-1 = tested on: CAKI-1
CCRF-CEM = tested on: CCRF-CEM
COLO 205 = tested on: COLO 205
DU-145 = tested on: DU-145
EKVX = tested on: EKVX
HCC 2998 = tested on: HCC 2998
HCT-116 = tested on: HCT-116
HCT-15 = tested on: HCT-15
HL-60 = tested on: HL-60
HOP-62 = tested on: HOP-62
HT-29 = tested on: HT-29
Hs-578T = tested on: Hs-578T
IGROV-1 = tested on: IGROV-1
K562 = tested on: K562
KM12 = tested on: KM12
LOX IMVI = tested on: LOX IMVI
M14 = tested on: M14
MCF7 = tested on: MCF7
MDA-MB-231 = tested on: MDA-MB-231
MDA-MB-435 = tested on: MDA-MB-435
MDA-N = tested on: MDA-N
MOLT-4 = tested on: MOLT-4
Malme-3M = tested on: Malme-3M
NCI-H226 = tested on: NCI-H226
NCI-H23 = tested on: NCI-H23
NCI-H460 = tested on: NCI-H460
NCI-H522 = tested on: NCI-H522
NCI/ADR-RES = tested on: NCI/ADR-RES
OVCAR-3 = tested on: OVCAR-3
OVCAR-4 = tested on: OVCAR-4
OVCAR-5 = tested on: OVCAR-5
OVCAR-8 = tested on: OVCAR-8
PC-3 = tested on: PC-3
RPMI-8226 = tested on: RPMI-8226
RXF 393 = tested on: RXF 393
SF-268 = tested on: SF-268
SF-295 = tested on: SF-295
SF-539 = tested on: SF-539
SK-MEL-28 = tested on: SK-MEL-28
SK-MEL-2 = tested on: SK-MEL-2
SK-MEL-5 = tested on: SK-MEL-5
SK-OV-3 = tested on: SK-OV-3
SN12C = tested on: SN12C
SNB-19 = tested on: SNB-19
SNB-75 = tested on: SNB-75
SR = tested on: SR
SW-620 = tested on: SW-620
TK-10 = tested on: TK-10
U-251 = tested on: U-251
UACC-257 = tested on: UACC-257
UACC-62 = tested on: UACC-62
UO-31 = tested on: UO-31
T47D = tested on: T47D

CSc1nc(C)cc(N(C)c2ccccc2)n1
GI50 (786-0): 38.5 µM (inactive) | GI50 (A498): 50.1 µM (inactive) | GI50 (A549): 29 µM (inactive) | GI50 (ACHN): 58.6 µM (inactive) | GI50 (CAKI-1): 33 µM (inactive) | GI50 (CCRF-CEM): 38 µM (inactive) | GI50 (COLO 205): 34.8 µM (inactive) | GI50 (DU-145): 58.6 µM (inactive) | GI50 (EKVX): 37.8 µM (inactive) | GI50 (HCC 2998): > 100 µM (inactive) | GI50 (HCT-116): 22.9 µM (inactive) | GI50 (HCT-15): 38.4 µM | GI50 (HL-60): 32.8 µM (inactive) | GI50 (HOP-62): 45.2 µM (inactive) | GI50 (HT-29): 15.1 µM (inactive) | GI50 (Hs-578T): 32.4 µM (inactive) | GI50 (IGROV-1): 36.9 µM (inactive) | GI50 (K562): 44 µM (inactive) | GI50 (KM12): 1.73 µM (inactive) | GI50 (LOX IMVI): 21.1 µM (inactive) | GI50 (M14): 30.1 µM (inactive) | GI50 (MCF7): 24.9 µM (inactive) | GI50 (MDA-MB-231): 34.8 µM (inactive) | GI50 (MDA-MB-435): 22.5 µM (inactive) | GI50 (MDA-N): 24.1 µM (inactive) | GI50 (MOLT-4): 29.7 µM (inactive) | GI50 (Malme-3M): 63.7 µM (inactive) | GI50 (NCI-H226): 34.5 µM (inactive) | GI50 (NCI-H23): 27.9 µM (inactive) | GI50 (NCI-H460): 40.7 µM (inactive) | GI50 (NCI-H522): 65.6 µM (inactive) | GI50 (NCI/ADR-RES): 25.2 µM (inactive) | GI50 (OVCAR-3): 27.3 µM (inactive) | GI50 (OVCAR-4): > 100 µM (inactive) | GI50 (OVCAR-5): > 100 µM (inactive) | GI50 (OVCAR-8): 34.8 µM (inactive) | GI50 (PC-3): 55.5 µM (inactive) | GI50 (RPMI-8226): > 100 µM (inactive) | GI50 (RXF 393): 31 µM (inactive) | GI50 (SF-268): 43.8 µM (inactive) | GI50 (SF-295): 34.7 µM (inactive) | GI50 (SF-539): 28 µM (inactive) | GI50 (SK-MEL-28): 46.8 µM (inactive) | GI50 (SK-MEL-2): 40 µM (inactive) | GI50 (SK-MEL-5): 25.6 µM (inactive) | GI50 (SK-OV-3): 37.6 µM (inactive) | GI50 (SN12C): 41.8 µM (inactive) | GI50 (SNB-19): 85.5 µM (inactive) | GI50 (SNB-75): 27.1 µM (inactive) | GI50 (SR): 10.7 µM (inactive) | GI50 (SW-620): 54.5 µM (inactive) | GI50 (TK-10): 33.5 µM (inactive) | GI50 (U-251): 31.4 µM (inactive) | GI50 (UACC-257): 31.6 µM (inactive) | GI50 (UACC-62): 35.3 µM (inactive) | GI50 (UO-31): 5.33 µM (inactive)

O=c1c2ccccc2nc2n1CCc1c-2[nH]c2cc3c(cc12)OCO3
GI50 (ACHN): 3.98 µM (inactive) | GI50 (COLO 205): > 25 µM (inactive) | GI50 (EKVX): > 25 µM (inactive) | GI50 (HCC 2998): > 25 µM (inactive) | GI50 (HCT-116): 3.32 µM (inactive) | GI50 (HCT-15): 8.65 µM | GI50 (HL-60): > 25 µM (inactive) | GI50 (HOP-62): 9.42 µM (inactive) | GI50 (IGROV-1): > 25 µM (inactive) | GI50 (K562): > 25 µM (inactive) | GI50 (KM12): 15.7 µM (inactive) | GI50 (M14): > 25 µM (inactive) | GI50 (MCF7): > 25 µM (inactive) | GI50 (MDA-MB-231): 9.71 µM (inactive) | GI50 (MDA-MB-435): 13.6 µM (inactive) | GI50 (MDA-N): 17.6 µM (inactive) | GI50 (MOLT-4): > 25 µM (inactive) | GI50 (NCI-H522): 5.4 µM (inactive) | GI50 (NCI/ADR-RES): > 25 µM (inactive) | GI50 (OVCAR-5): > 25 µM (inactive) | GI50 (OVCAR-8): 5.74 µM (inactive) | GI50 (PC-3): > 25 µM (inactive) | GI50 (RPMI-8226): > 25 µM (inactive) | GI50 (SF-268): 5.41 µM (inactive) | GI50 (SF-295): 5.55 µM (inactive) | GI50 (SF-539): 5.77 µM (inactive) | GI50 (SK-MEL-28): > 25 µM (inactive) | GI50 (SK-MEL-5): 13.7 µM (inactive) | GI50 (SK-OV-3): 6.95 µM (inactive) | GI50 (SN12C): > 25 µM (inactive) | GI50 (SNB-19): 5.11 µM (inactive) | GI50 (SNB-75): 6.61 µM (inactive) | GI50 (SR): > 25 µM (inactive) | GI50 (SW-620): > 25 µM (inactive) | GI50 (T47D): > 25 µM (inactive) | GI50 (TK-10): > 25 µM (inactive) | GI50 (U-251): 7.28 µM (inactive) | GI50 (UACC-257): > 25 µM (inactive) | GI50 (UO-31): > 25 µM (inactive)
